Data reported in patent US9790218B2, “Small molecule activators of calcium-activated chloride channels and methods of use” (The Regents of the University of California, priority 2011, dated 2017).

Target: T1, ENaC (Homo sapiens, UniProt P37088+P51168+P51170)
T1 construct: endogenous in cells; host or cells: primary human bronchial epithelial (HBE) cells at air-liquid interface
T1 sequence (P37088 1-669): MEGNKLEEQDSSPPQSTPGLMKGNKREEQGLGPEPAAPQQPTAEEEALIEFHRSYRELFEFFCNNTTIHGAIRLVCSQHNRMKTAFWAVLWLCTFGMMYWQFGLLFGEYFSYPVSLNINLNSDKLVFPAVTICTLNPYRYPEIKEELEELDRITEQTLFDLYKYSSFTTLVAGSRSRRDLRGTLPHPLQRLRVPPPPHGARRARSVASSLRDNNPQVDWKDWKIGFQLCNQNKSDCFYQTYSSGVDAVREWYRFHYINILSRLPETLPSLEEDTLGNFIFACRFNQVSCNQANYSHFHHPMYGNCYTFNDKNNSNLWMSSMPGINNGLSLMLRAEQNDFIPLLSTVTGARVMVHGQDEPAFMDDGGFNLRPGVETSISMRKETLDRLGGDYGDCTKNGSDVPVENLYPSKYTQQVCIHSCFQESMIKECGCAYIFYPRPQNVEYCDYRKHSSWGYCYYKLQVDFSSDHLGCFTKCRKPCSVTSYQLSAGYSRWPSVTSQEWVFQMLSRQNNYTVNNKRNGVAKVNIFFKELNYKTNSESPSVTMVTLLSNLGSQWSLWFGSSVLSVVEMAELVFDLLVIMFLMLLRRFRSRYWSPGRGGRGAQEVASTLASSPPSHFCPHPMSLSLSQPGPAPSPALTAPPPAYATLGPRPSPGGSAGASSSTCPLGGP
T1 sequence (P51168 1-640): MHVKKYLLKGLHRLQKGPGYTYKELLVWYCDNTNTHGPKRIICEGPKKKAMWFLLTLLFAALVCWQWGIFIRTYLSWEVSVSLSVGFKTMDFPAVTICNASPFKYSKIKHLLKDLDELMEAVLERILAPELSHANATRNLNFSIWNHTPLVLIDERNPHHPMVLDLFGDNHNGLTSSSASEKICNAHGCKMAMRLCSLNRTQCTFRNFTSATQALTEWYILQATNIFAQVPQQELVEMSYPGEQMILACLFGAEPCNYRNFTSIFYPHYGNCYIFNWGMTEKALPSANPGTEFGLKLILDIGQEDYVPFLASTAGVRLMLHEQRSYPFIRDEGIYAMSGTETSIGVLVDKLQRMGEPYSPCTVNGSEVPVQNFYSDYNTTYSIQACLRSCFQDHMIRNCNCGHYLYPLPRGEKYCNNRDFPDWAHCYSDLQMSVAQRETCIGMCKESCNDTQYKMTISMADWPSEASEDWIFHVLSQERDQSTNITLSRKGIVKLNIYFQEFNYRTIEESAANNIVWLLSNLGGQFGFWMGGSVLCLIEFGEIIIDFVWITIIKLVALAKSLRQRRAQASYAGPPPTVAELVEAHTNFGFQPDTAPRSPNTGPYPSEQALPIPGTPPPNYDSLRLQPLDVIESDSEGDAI
T1 sequence (P51170 1-649): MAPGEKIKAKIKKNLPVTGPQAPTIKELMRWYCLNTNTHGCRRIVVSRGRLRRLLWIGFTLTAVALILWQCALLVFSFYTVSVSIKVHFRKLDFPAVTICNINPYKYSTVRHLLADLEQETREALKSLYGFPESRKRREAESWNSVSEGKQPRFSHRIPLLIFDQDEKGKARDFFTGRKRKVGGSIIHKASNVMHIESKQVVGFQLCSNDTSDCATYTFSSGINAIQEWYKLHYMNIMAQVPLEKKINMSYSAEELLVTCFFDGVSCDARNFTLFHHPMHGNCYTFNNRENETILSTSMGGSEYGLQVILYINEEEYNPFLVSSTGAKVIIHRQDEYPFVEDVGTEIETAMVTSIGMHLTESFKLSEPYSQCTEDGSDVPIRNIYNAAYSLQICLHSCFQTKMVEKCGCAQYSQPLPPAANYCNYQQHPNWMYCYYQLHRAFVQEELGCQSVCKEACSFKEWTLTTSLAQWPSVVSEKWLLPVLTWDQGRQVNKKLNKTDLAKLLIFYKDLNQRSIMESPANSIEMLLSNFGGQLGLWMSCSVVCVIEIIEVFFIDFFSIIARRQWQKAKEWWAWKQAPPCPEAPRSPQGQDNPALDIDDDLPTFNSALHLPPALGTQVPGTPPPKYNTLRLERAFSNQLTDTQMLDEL
Test: ENaC Na^+ conductance in HBE cells
Assay type: cell-based
Settings: 10 μM, 5 min pretreatment; amiloride 10 μM
Protocol: FIG. 2A-E. Characterization of TMEM16A activators. FIG. 2A. Cytoplasmic calcium measured by Fluo-4 fluorescence. 100 μM ATP (gray line) or 10 μM of indicated TMEM16A activators were added at the arrow. FIG. 2B. Apical membrane current measured in TMEM16A-expressing FRT cells in the presence of a transepithelial chloride gradient and after basolateral membrane permeabilization. […] T16Ainh-A01 (10 μM) added where indicated. […] (right) Concentration-activation data summary (mean±S.E., n=4-6). FIG. 2C. Synergistic effect of Eact and Fact. (left and center) Representative current traces showing synergy. (right) Data summary of low doses of TMEM16A activation (mean±S.E., n=5, * P<0.05). FIG. 2D. Apical membrane current measured in FRT cells transfected with mouse TMEM16A or TMEM16B. FIG. 2E. Effect of Eact and Fact on CFTR and ENaC. (left) FRT cells expressing wild type CFTR and YFP indicator were pretreated for 5 min with 10 μM Eact and Fact. Forskolin (10 μM) added as indicated. […]
Snapwell inserts containing TMEM16A-expressing FRT, HBE, CF HBE or HTG cells were mounted in Ussing chambers (Physiologic Instruments, San Diego, Calif.). […] Apical membrane current (for FRT cells) and short-circuit current were measured using an EVC4000 Multi-Channel V/I Clamp (World Precision Instruments, Sarasota, Fla.) and recorded using PowerLab/8sp (AD Instruments, Castle Hill, Australia).

Compound: O=C(Nc1ccc(Br)cc1)c1cccc(-n2cnnn2)c1 [Fact, N-(4-bromophenyl)-3-(1H-tetrazol-1-yl)benzamide]
- effect on ENaC Na^+ conductance: Neither Eact nor Fact affected
